Test results from patent publication US20100267561A1, “HERBICIDAL PYRIDAZINONE DERIVATIVES” (priority 2007, published 2010).

What was measured:
Type in all cases: in vivo
[1] = system: wheat (Triticum aestivum); test: Test B pre-/postemergence plant response
Summary of the method: (§1)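 Visual scoring from 0 (no effect) to 100 (complete control) against untreated controls was done 13 to 15 days after greenhouse treatment. Chemicals were formulated in a surfactant-containing non-phytotoxic solvent and applied to soil preemergence or to 1- to 4-leaf (2-18 cm) plants postemergence.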

[2] = system: morningglory (Ipomoea coccinea); test: Test B pre-/postemergence plant response
Summary of the method: as §1

[3] = system: cocklebur (Xanthium strumarium); test: Test B pre-/postemergence plant response; details: for Cocklebur plant response rating: 8 g ai/ha
Summary of the method: as §1

[4] = system: goosegrass (Eleusine indica); test: Test B pre-/postemergence plant response
Summary of the method: as §1

[5] = system: Russian thistle (Salsola iberica); test: Test B pre-/postemergence plant response; details: Preemergence; for Russian Thistle plant response rating: scale 0 to 100
Summary of the method: as §1

soybean (Glycine max) = test: Test B pre-/postemergence plant response
Summary of the method: as §1

[6] = system: Italian ryegrass (Lolium multiflorum); test: Test B pre-/postemergence plant response
Summary of the method: as §1

[7] = system: large crabgrass (Digitaria sanguinalis); test: Test B pre-/postemergence plant response
Summary of the method: as §1

[8] = system: johnsongrass (Sorghum halepense); test: Test B pre-/postemergence plant response
Summary of the method: as §1

[9] = system: surinam grass (Brachiaria decumbens); test: Test B pre-/postemergence plant response
Summary of the method: as §1

[10] = system: eastern black (E.B.) nightshade (Solanum ptycanthum); test: Test B pre-/postemergence plant response; details: Preemergence; for Nightshade, E. B. plant response rating: scale 0 to 100
Summary of the method: as §1

[11] = system: bermudagrass (Cynodon dactylon); test: Test B pre-/postemergence plant response; details: for Bermudagrass plant response rating: 8 g ai/ha
Summary of the method: as §1

[12] = system: green foxtail (Setaria viridis); test: Test B pre-/postemergence plant response
Summary of the method: as §1

[13] = system: chickweed (Stellaria media); test: Test B postemergence plant response; details: for Plant response rating, Chickweed: Postemergence
Summary of the method: (§2)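 Visual injury ratings on a 0–100 scale, where 100 means complete control, were made 13 to 15 days after postemergence treatment of greenhouse-grown plants at the 1- to 4-leaf stage.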

[14] = system: windgrass (Apera spica-venti); test: Test B postemergence plant response; details: for Windgrass plant response rating: postemergence, 0-100 scale; for Plant response rating, Windgrass: Postemergence
Summary of the method: as §2

[15] = system: winter barley (Hordeum vulgare); test: Test B postemergence plant response; details: for Plant response rating, Barley: Postemergence, scale 0 to 100, 0 no effect, 100 complete control
Summary of the method: as §2

[16] = 8 g ai/ha, postemergence, 0-100 scale
[17] = 16 g ai/ha, postemergence, 0-100 scale
[18] = Postemergence, 31 g ai/ha, scale 0 to 100
[19] = Postemergence, 62 g ai/ha, scale 0 to 100, 0 no effect, 100 complete control
[20] = Preemergence, 31 g ai/ha, scale 0 to 100 (0 no effect, 100 complete control)
[21] = Preemergence, 62 g ai/ha, 0 to 100 scale, 0 no effect, 100 complete control
[22] = Preemergence, 16 g ai/ha, scale 0 to 100
[23] = Preemergence, 8 g ai/ha, scale 0 to 100
[24] = Postemergence, 16 g ai/ha, scale 0 to 100
[25] = Preemergence, 16 g ai/ha, scale 0 to 100 (0 no effect, 100 complete control)
[26] = 31 g ai/ha, scale 0 to 100 (0 no effect, 100 complete control)
[27] = 62 g ai/ha, 0 to 100 scale, 0 no effect, 100 complete control
[28] = 62 g ai/ha, scale 0 to 100, 0 no effect, 100 complete control

SMILES: CCc1cc(-c2ccc(C(F)(F)F)cc2)nn1-c1c(O)c(OC)nn(C)c1=O [Compound 66]
- Wheat plant response rating [1, 16]: 95
- Wheat plant response rating [1, 17]: 100
- Plant response rating, Wheat [1, 18]: 100
- Plant response rating, Wheat [1, 19]: 100
- Plant response rating, Wheat [1, 20]: 95
- Plant response rating, Wheat [1, 21]: 95
- Wheat plant response rating [1, 22]: 90
- Morningglory plant response rating [2, 16]: 0
- Morningglory plant response rating [2, 17]: 0
- Plant response rating, Morningglory [2, 18]: 0
- Plant response rating, Morningglory [2, 19]: 0
- Plant response rating, Morningglory [2, 20]: 0
- Plant response rating, Morningglory [2, 21]: 0
- Morningglory plant response rating [2, 23]: 0
- Morningglory plant response rating [2, 22]: 0
- Cocklebur plant response rating ([3]; postemergence, 0-100 scale): 0
- Plant response rating, Cocklebur [3, 24]: 0
- Plant response rating, Cocklebur [3, 18]: 0
- Plant response rating, Cocklebur [3, 19]: 0
- Plant response rating, Cocklebur [3, 25]: 0
- Plant response rating, Cocklebur [3, 20]: 0
- Plant response rating, Cocklebur [3, 21]: 0
- Cocklebur plant response rating ([3]; Preemergence, scale 0 to 100): 0
- Goosegrass plant response rating [4, 16]: 70
- Goosegrass plant response rating [4, 17]: 75
- Plant response rating, Goosegrass [4, 18]: 85
- Plant response rating, Goosegrass [4, 19]: 98
- Plant response rating, Goosegrass [4, 20]: 25
- Plant response rating, Goosegrass [4, 21]: 70
- Goosegrass plant response rating [4, 23]: 0
- Goosegrass plant response rating [4, 22]: 0
- Plant response rating, Russian Thistle [5, 26]: 0
- Plant response rating, Russian Thistle [5, 27]: 0
- Russian Thistle plant response rating ([5]; 8 g ai/ha): 0
- Russian Thistle plant response rating ([5]; 16 g ai/ha): 0
- Soybean plant response rating (soybean (Glycine max); [16]): 0
- Soybean plant response rating (soybean (Glycine max); [17]): 0
- Plant response rating, Soybean (soybean (Glycine max); [18]): 0
- Plant response rating, Soybean (soybean (Glycine max); [19]): 0
- Plant response rating, Soybean (soybean (Glycine max); [20]): 0
- Plant response rating, Soybean (soybean (Glycine max); [21]): 0
- Soybean plant response rating (soybean (Glycine max); [23]): 0
- Soybean plant response rating (soybean (Glycine max); [22]): 0
- Ryegrass, Italian plant response rating [6, 16]: 60
- Ryegrass, Italian plant response rating [6, 17]: 100
- Plant response rating, Ryegrass, Italian [6, 18]: 100
- Plant response rating, Ryegrass, Italian [6, 19]: 100
- Plant response rating, Ryegrass, Italian [6, 20]: 100
- Plant response rating, Ryegrass, Italian [6, 21]: 100
- Ryegrass, Italian plant response rating [6, 23]: 100
- Ryegrass, Italian plant response rating [6, 22]: 100
- Crabgrass, Large plant response rating [7, 16]: 70
- Plant response rating, Crabgrass, Large [7, 24]: 85
- Plant response rating, Crabgrass, Large [7, 18]: 98
- Plant response rating, Crabgrass, Large [7, 19]: 100
- Plant response rating, Crabgrass, Large [7, 20]: 60
- Plant response rating, Crabgrass, Large [7, 21]: 80
- Crabgrass, Large plant response rating [7, 23]: 0
- Crabgrass, Large plant response rating [7, 22]: 0
- Johnsongrass plant response rating [8, 16]: 75
- Johnsongrass plant response rating [8, 17]: 100
- Plant response rating, Johnsongrass [8, 18]: 100
- Plant response rating, Johnsongrass [8, 19]: 100
- Plant response rating, Johnsongrass [8, 20]: 98
- Plant response rating, Johnsongrass [8, 21]: 100
- Johnsongrass plant response rating [8, 23]: 70
- Johnsongrass plant response rating [8, 22]: 95
- Surinam Grass plant response rating [9, 16]: 95
- Surinam Grass plant response rating [9, 17]: 98
- Plant response rating, Surinam Grass [9, 18]: 100
- Plant response rating, Surinam Grass [9, 19]: 100
- Plant response rating, Surinam Grass [9, 20]: 98
- Plant response rating, Surinam Grass [9, 21]: 98
- Surinam Grass plant response rating [9, 23]: 0
- Surinam Grass plant response rating [9, 22]: 80
- Plant response rating, Nightshade, E. B. [10, 26]: 0
- Plant response rating, Nightshade, E. B. [10, 27]: 0
- Nightshade, E. B. plant response rating ([10]; 8 g ai/ha): 0
- Nightshade, E. B. plant response rating ([10]; 16 g ai/ha): 0
- Bermudagrass plant response rating ([11]; postemergence, 0-100 scale): 20
- Plant response rating, Bermudagrass [11, 24]: 98
- Plant response rating, Bermudagrass [11, 18]: 100
- Plant response rating, Bermudagrass [11, 19]: 100
- Bermudagrass plant response rating ([11]; Preemergence, scale 0 to 100 (0 no effect, 100 complete control)): 0
- Plant response rating, Bermudagrass [11, 25]: 85
- Plant response rating, Bermudagrass [11, 20]: 98
- Plant response rating, Bermudagrass [11, 21]: 100
- Foxtail, Green plant response rating [12, 16]: 80
- Plant response rating, Foxtail, Green [12, 24]: 100
- Plant response rating, Foxtail, Green [12, 18]: 100
- Plant response rating, Foxtail, Green [12, 19]: 100
- Plant response rating, Foxtail, Green [12, 20]: 100
- Plant response rating, Foxtail, Green [12, 21]: 100
- Foxtail, Green plant response rating [12, 23]: 98
- Foxtail, Green plant response rating [12, 22]: 100
- Chickweed plant response rating [13, 16]: 0
- Plant response rating, Chickweed ([13]; 16 g ai/ha, scale 0 to 100): 0
- Plant response rating, Chickweed ([13]; 31 g ai/ha, scale 0 to 100): 0
- Plant response rating, Chickweed [13, 28]: 0
- Windgrass plant response rating ([14]; 8 g ai/ha): 90
- Windgrass plant response rating ([14]; 16 g ai/ha): 100
- Plant response rating, Windgrass ([14]; 31 g ai/ha, scale 0 to 100): 100
- Plant response rating, Windgrass [14, 28]: 100
- Barley plant response rating [15, 16]: 90
- Plant response rating, Barley ([15]; 16 g ai/ha): 98
- Plant response rating, Barley ([15]; 31 g ai/ha): 100
